# US8486962B2, “Antifungal agents” (F2G Ltd., priority 2005, dated 2013)
# Experiments:
# [1] = test system: Aspergillus flavus; test: MIC, YAG medium, Aspergillus flavus; format: cell-based; details: Aspergillus flavus; YAG medium; read-out: MIC A Flavus 01
# How it was run: (§1)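 Yeast: RPMI + 2% glucose + 0.135M MOPS pH7.0, 1-2×10^3 cfu/ml, 35° C 24-48 h, OD485, MIC at >80% inhib. Aspergillus: YAG (1% glucose, 1% NH4Cl, 0.5% yeast extract), spores 1-2×10^4 cfu/ml, 35° C 24 h, MIC at >70% inhib. Range 50-0.05 mg/L.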
# [2] = test system: Aspergillus fumigatus AF293; test: MIC, YAG medium, Aspergillus fumigatus AF293; format: cell-based; details: Aspergillus fumigatus, AF293; YAG medium; read-out: MIC A Fum. 293
# How it was run: as §1
# [3] = test system: Aspergillus niger; test: MIC, YAG medium, Aspergillus niger; format: cell-based; details: Aspergillus niger; YAG medium; read-out: MIC A Niger 1
# How it was run: as §1
# [4] = test system: Aspergillus terreus; test: MIC, YAG medium, Aspergillus terreus; format: cell-based; details: Aspergillus terreus; YAG medium; read-out: MIC A Terreus 4
# How it was run: as §1
# [5] = test system: Aspergillus fumigatus AF210; test: MIC, YAG medium, Aspergillus fumigatus AF210; format: cell-based; details: Aspergillus fumigatus, AF210; YAG medium; read-out: MIC A Fum. 210
# How it was run: as §1
# [6] = test system: A Terreus 49; test: MIC, YAG medium, A Terreus 49; format: cell-based, Aspergillus terreus; details: Aspergillus terreus; YAG medium; read-out: MIC A Terreus 49
# Description: Measurement of Minimum Inhibitory Concentrations (MICs)
# Between 1 and 5 mgs of compound were accurately weighed out into a sterile Eppendorf tube. The compound was dissolved in DMSO to give a solution containing 5 mg/ml. Tubes were stored at −20° C. until required.
# On the day of testing thawed solutions were vortex mixed to ensure homogeneity. 30 μl of solution was removed and added to 570 μl of sterile water in a separate sterile Eppendorf. The thoroughly mixed solution was used to prepare a series of doubling dilutions in water, in a deep well plate. Eleven replicate plates were prepared using a Minitrak by aspirating 20 μl from each well into eleven clear polystyrene 96 well plates.
# Spores of Aspergillus spp (Aspergillus fumigatus, Aspergillus terreus, Aspergillus niger and Aspergillus flavus) were harvested from cultures grown on Sabarauds agar for 5 days, and resuspended in PBS/Tween 80 to approx 1×10^7 cfu/ml Other filamentous fungi (Fusarium solani, Scedosporium spp., Trichophyton spp., Absidia corymbifera), were grown on Sabarauds agar for 2-10 days and spores/hyphae resuspended in PBS/Tween to give approx 1×10^7 cfU/ml. Candida species (Candida albicans, Candida glabrata, Candida krusei, Candida parapsilosis and Candida tropicalis) were grown on Sabarauds agar, cells were harvested from the agar using a sterile loop and resuspended in PBS/Tween 80 to approx 1×10^6 cfu/ml. Each organism suspension was diluted in RPMI medium, containing 2% glucose and 0.135M MOPS buffer (pH7.0) to 2×10^4 cfu/ml for Aspergillus spp and other filamentous fungi and 2×10^3 cfu/ml for yeast. 80 μl of an organism suspension was added to each well of the plate containing drug dilutions.
# This produced MIC plates with a drug range 50-0.05 mg/L and organism inocula of 1-2×10^4 cfu/ml for Aspergillus spp and other filamentous fungi and 1-2×10^3 cfu/ml for yeasts. All plates were incubated for 24-48 hrs at 35° C. Growth was assessed by monitoring the optical density at 485 nm for each well. The MIC of a compound is the lowest drug concentration that inhibits growth of an organism by >80% compared with a drug free control. MICs are recorded as mg/L. Other growth media can be used for susceptibility testing, and the activity of the described compounds can also be assessed in a medium comprising, 1% glucose, 1% ammonium chloride and 0.5% yeast extract (YAG medium). To perform MIC tests in this medium, dilutions of compounds are prepared in microtitre plates as described above. Fungal strains to be tested are grown and harvested in an identical manner to that described above, each organism suspension is then diluted in YAG medium to 2×10^4 cfu/ml for Aspergillus spp and other filamentous fungi and 2×10^3 cfu/ml for yeast. 80 μl of an organism suspension was added to each well of the plate containing drug dilutions. This produced MIC plates with a drug range 50-0.05 mg/L and organism inocula of 1-2×10^4 cfu/ml for Aspergillus spp and other filamentous fungi and 1-2×10^3 cfu/ml for yeasts. All plates were incubated for 24 hrs at 35° C. Growth was assessed by monitoring the optical density at 485 nm for each well. The MIC of a compound is the lowest drug concentration that inhibits growth of an organism by >70% compared with a drug free control. MICs are recorded as mg/L. In cases where the MIC of an organism is […]0.05 mg/L the MIC is repeated using a concentration range of 0.5-0.0005 mg/L. MIC tests in YAG medium have more clear-cut endpoints and have slightly lower MICS than those performed in RPMI medium.
# The following organisms were tested: Aspergillus fumigatus AF293 and Aspergillus fumigatus AF210, Aspergillus niger, Aspergillus terreus, Aspergillus favus, Candida albicans, Candida krusei, Candida tropicalis, Candida glabrata, Candida parapsilosis, Trichophyton rubrum, Trichophyton mentagrophytes, Scedosporium prolificans, Scedosporium apiospermum, Absidia corymbifera, Fusarium solani.
MIC [1],MIC [2],MIC [3],MIC [4],MIC [5],MIC [6],Structure (SMILES)
1.6 µg/mL,1.6 µg/mL,6.25 µg/mL,1.6 µg/mL,1.6 µg/mL,1.6 µg/mL,"CN1CCN(c2ccc(NC(=O)C(=O)c3c(-c4ccccc4)cc4ccccn34)cc2)CC1 [Example 262, N-[4-(4-Methyl-piperazin-1-yl)-phenyl]-2-oxo-2-(2-phenyl-indolizin-3-yl)-acetamide]"
0.04 µg/mL,0.015 µg/mL,0.03 µg/mL,0.001 µg/mL,0.015 µg/mL,0.001 µg/mL,"Cn1ccc2cc(NC(=O)C(=O)c3c(-c4ccccc4)cc4ccccn34)ccc21 [Example 256, N-(1-Methyl-1H-indol-5-yl)-2-oxo-2-(2-phenyl-indolizin-3-yl)-acetamide]"
0.03 µg/mL,0.05 µg/mL,0.015 µg/mL,0.03 µg/mL,0.1 µg/mL,0.008 µg/mL,"Cc1noc(C)c1-c1ccc(NC(=O)C(=O)c2c(-c3ccccc3)cc3ccccn23)cc1 [Example 287, N-[4-(3,5-Dimethyl-isoxazol-4-yl)-phenyl]-2-oxo-2-(2-phenyl-indolizin-3-yl)-acetamide]"
0.031 µg/mL,0.5 µg/mL,0.12 µg/mL,0.015 µg/mL,0.5 µg/mL,0.008 µg/mL,"COc1ccc(NC(=O)C(=O)c2c(-c3cccc(Cl)c3)cc3ccccn23)cc1 [Example 235, 2-[2-(3-Chloro-phenyl)-indolizin-3-yl]-N-(4-methoxy-phenyl)-2-oxo-acetamide]"
0.05 µg/mL,0.1 µg/mL,0.05 µg/mL,0.03 µg/mL,0.2 µg/mL,0.003 µg/mL,"CCN(CC)c1ccc(NC(=O)C(=O)c2c(-c3ccccc3)cc3ccccn23)cc1C [Example 290, N-(4-Diethylamino-3-methyl-phenyl)-2-oxo-2-(2-phenyl-indolizin-3-yl)-acetamide]"
25 µg/mL,> 50 µg/mL,> 50 µg/mL,12.5 µg/mL,> 50 µg/mL,12.5 µg/mL,"CN(C)c1ccc(NC(=O)C(=O)c2c(-c3cccnc3)cc3ccccn23)cn1 [Example 253, N-(6-Dimethylamino-pyridin-3-yl)-2-oxo-2-(2-pyridin-3-yl-indolizin-3-yl)-acetamide]"
0.008 µg/mL,0.12 µg/mL,0.25 µg/mL,0.031 µg/mL,0.12 µg/mL,0.015 µg/mL,"COC(=O)c1cccc(NC(=O)C(=O)c2c(-c3ccccc3)cc3ccccn23)c1 [Example 141, 3-[2-Oxo-2-(2-phenyl-indolizin-3-yl)-acetylamino]-benzoic acid methyl ester]"
0.062 µg/mL,0.5 µg/mL,0.25 µg/mL,0.062 µg/mL,0.5 µg/mL,0.03 µg/mL,"COc1ccc(NC(=O)C(=O)c2c(-c3ccccc3)cc3ccccn23)cn1 [Example 146, N-(6-Methoxy-pyridin-3-yl)-2-oxo-2-(2-phenyl-indolizin-3-yl)-acetamide]"
> 50 µg/mL,0.8 µg/mL,6.25 µg/mL,1.6 µg/mL,1.6 µg/mL,1.6 µg/mL,"CCOC(=O)C(C)(Cc1ccccc1)NC(=O)C(=O)c1c(-c2ccccc2)cc2ccccn12 (stereo not drawn) [Example 249, 2-Methyl-2-[2-oxo-2-(2-phenyl-indolizin-3-yl)-acetylamino]-3-phenyl-propionic acid ethyl ester]"
